Patent US5162221A (Forschungszentrum Juelich GmbH, priority 1989, dated 1992)

Assays:
[1] = molecular target: fructose-1,6-bisphosphate aldolase (F-1,6-BP aldolase) from Staphylococcus carnosus, class I, purified (Staphylococcus carnosus, UniProt Q07159); conditions: read-out: Km for F-1-P; cleavage of F-1-P to DHAP and glyceraldehyde; 37° C., pH 7.5
Method: Purified aldolase (40 μg/ml) was used for characterizing the enzyme, and 120 μg/ml were used for molecular weight determination.

[2] = system: O=C(COP(=O)(O)O)[C@@H](O)[C@H](O)[C@H](O)COP(=O)(O)O; assay: purified protein, by the assay type; conditions: other: cleavage of F-1,6-BP to DHAP and glyceraldehyde 3-phosphate, 37° C., pH 7.5

Sequence of fructose-1,6-bisphosphate aldolase (F-1,6-BP aldolase) from Staphylococcus carnosus, class I, purified (Q07159 whole entry): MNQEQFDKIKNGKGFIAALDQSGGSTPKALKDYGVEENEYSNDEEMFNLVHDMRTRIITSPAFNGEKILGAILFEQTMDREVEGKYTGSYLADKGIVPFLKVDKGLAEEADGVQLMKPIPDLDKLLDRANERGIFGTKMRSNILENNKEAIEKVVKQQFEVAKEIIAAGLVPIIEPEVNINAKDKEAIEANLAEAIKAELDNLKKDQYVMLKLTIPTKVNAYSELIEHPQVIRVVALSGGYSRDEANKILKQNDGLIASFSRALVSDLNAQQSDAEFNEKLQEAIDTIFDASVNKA

O=C(COP(=O)(O)O)[C@@H](O)[C@H](O)[C@H](O)CO [F-1-P]
Km [1]: 18.8 mM

fructose-1,6-bisphosphate aldolase (F-1,6-BP aldolase) from Staphylococcus carnosus, class I, purified (Staphylococcus carnosus subsp. carnosus TM300)
Km [2]: 0.022 mM
